Experimental data reported in the supplement of paper PMC11451515.

How the values were obtained:
Assay in all cases: AUC of viability dose-response curve (% viability x log10 dose units); higher = less sensitive
Conditions in all cases: 48 h
[1] = tested on: NOMO1
Outline: (§1)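 Leukemia cells adapted to each medium were seeded at 500 or 1000 cells/well in 1536-well plates and dosed with library compounds in DMSO at 11 threefold doses from 47 μM to 0.79 nM for 48 h at 37°C. CellTiter-Glo One luminescence was normalised per plate to DMSO and cell-free wells, then fitted with a four-parameter log-logistic model over log10 doses. Area under the curve was taken from this fit by the trapezoidal rule, with curves above full viability scaled and curves failing quality control removed.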

[2] = tested on: P12-Ichikawa
Outline: as §1

[3] = tested on: SEM cells
Outline: as §1

[4] = RPMI 5 mM glucose + 10% dialyzed FBS

Row | Structure (SMILES) | AUC of viability dose-response curve ([1]; HPLM + 10% dialyzed FBS) | AUC of viability dose-response curve ([1]; RPMI 5 mM glucose + 10% FBS) | AUC of viability dose-response curve [1, 4] | AUC of viability dose-response curve ([2]; HPLM + 10% dialyzed FBS) | AUC of viability dose-response curve ([2]; RPMI 5 mM glucose + 10% FBS) | AUC of viability dose-response curve [2, 4] | AUC of viability dose-response curve ([3]; HPLM + 10% dialyzed FBS) | AUC of viability dose-response curve ([3]; RPMI 5 mM glucose + 10% FBS) | AUC of viability dose-response curve [3, 4]
1 | Oc1cc(-c2nc(-c3ccccc3)[nH]c2-c2ccncc2)ccc1Cl | 394 | 451 | 420 | 438 | 424 | 419 | 464 | 461 | 467
2 | C[S+](=O)([O-])Oc1ccc2c(NC(N)=O)c(C(=O)c3ccc(Cl)cc3Cl)oc2c1 | 449 | 460 | 462 | 455 | 463 | 466 | 433 | 442 | 464
3 | COc1ccc(F)c(F)c1C(=O)c1cnc(NC2CCN([S+](C)(=O)[O-])CC2)nc1N | 367 | 380 | 380 | 401 | 358 | 360 | 351 | 344 | 381
4 | CNC[C@H](O)[C@@H](O)[C@H](O)[C@H](O)CO | 432 | 473 | 470 | 471 | 471 | 474 | – | – | –
5 | CC(=O)SC[C@@H](C)C(=O)N1CCC[C@H]1C(=O)N[C@@H](Cc1ccccc1)C(=O)O | 448 | 450 | 466 | 466 | 466 | 462 | 454 | 454 | 472
6 | CCCCc1ccc2[nH]c(NC(=O)OC)nc2c1 | 304 | 273 | 293 | 252 | 261 | 289 | – | – | –
7 | c1cc(-c2cnn3cc(-c4ccc(OCCN5CCCCC5)cc4)cnc23)ccn1 | 388 | 397 | 394 | 416 | 395 | 406 | – | – | –
8 | COc1ccc(CCC(=O)c2c(O)cc(O[C@@H]3O[C@H](CO)[C@@H](O)[C@H](O)[C@H]3O[C@@H]3O[C@@H](C)[C@H](O)[C@@H](O)[C@H]3O)cc2O)cc1O | 413 | 426 | 425 | 458 | 442 | 463 | 464 | 455 | 465
9 | CC(C)C1CCC(C(=O)N[C@H](Cc2ccccc2)C(=O)O)CC1 (stereo partly specified) | 409 | 418 | 446 | 452 | 435 | 419 | 394 | 401 | 422
10 | CO[C@@H](C(=O)N1Cc2[nH]nc(NC(=O)c3ccc(N4CCN(C)CC4)cc3)c2C1)c1ccccc1 | 352 | 319 | 319 | 268 | 260 | 300 | 277 | 247 | 248
11 | O=C(O)c1cc(O)c2c(c1)C(=O)c1cccc(O)c1C2=O | 464 | 445 | 466 | 455 | 464 | 443 | 451 | 460 | 464
12 | CCC(CCCC)COC(=O)C(\C#N)=C(\c1ccccc1)c2ccccc2 (stereo unspecified) | 465 | 439 | 431 | 463 | 469 | 460 | 438 | 425 | 449
13 | CN(C)c1nc(Cc2ccc(NC(=O)c3ccc(C(F)(F)F)cc3)cc2)nc(N(C)C)c1CC(=O)O | 452 | 432 | 451 | 471 | 465 | 461 | 473 | 445 | 470
14 | Cc1ccc([C@@H]2O[C@H](CO)[C@@H](O)[C@H](O)[C@H]2O)cc1Cc1ccc(-c2ccc(F)cc2)s1 | 467 | 468 | 472 | 465 | 467 | 465 | 475 | 467 | 468
15 | CO[C@H]1CCC(O[C@H]2C[C@H]([C@]3(C)CC[C@]4(C[C@H](O)[C@@H](C)[C@@H]([C@@H](C)/C=C(\C)C(=O)[C@H](C)C[C@H](C)C(=O)[O-])O4)O3)O[C@]3(O[C@@H]([C@H]4O[C@@](O)(CO)[C@H](C)C[C@@H]4C)C[C@@H]3C)[C@@H]2C)O[C@@H]1C (stereo partly specified) | 405 | 449 | 415 | 353 | 366 | 376 | 368 | 352 | 344
16 | C[C@H](CCC(=O)O)[C@H]1CC[C@H]2[C@@H]3[C@H](O)C[C@@H]4C[C@H](O)CC[C@]4(C)[C@H]3CC[C@]12C | 443 | 436 | 409 | 448 | 431 | 418 | 417 | 406 | 433
17 | Cc1cc(Nc2cc(N3CCN(C)CC3)nc(/C=C/c3ccccc3)n2)n[nH]1 | 340 | 334 | 345 | 320 | 333 | 333 | 264 | 261 | 255
18 | CC1(C)SCCN([S+](=O)([O-])c2ccc(OCC#CCO)cc2)[C@H]1C(=O)NO | 462 | 437 | 450 | 456 | 454 | 438 | 449 | 413 | 439
19 | CC/C=C\C[C@H]1C(=O)CC[C@@H]1CC(=O)OC | 470 | 440 | 449 | 460 | 451 | 470 | 469 | 451 | 461
20 | CCc1ccc(OCc2ccccc2C(=O)Nc2ccc3nc(C)cc(N)c3c2)cc1 | 368 | 409 | 407 | 409 | 423 | 426 | 377 | 416 | 417
21 | Clc2cccc(Cl)c2\N=C1/NCCN1 | 455 | 474 | 468 | 446 | 448 | 452 | 414 | 407 | 429
22 | CCOC(=O)N1CCN(/[N+]([O-])=N/Oc2cc(O/N=[N+](\[O-])N3CCN(C(=O)OCC)CC3)c([N+](=O)[O-])cc2[N+](=O)[O-])CC1 | 476 | 460 | 463 | 460 | 476 | 450 | 449 | 464 | 474
23 | CCn1nnc2c(N3CCOCC3)nc(-c3ccc(NC(=O)Nc4ccc(C(=O)N5CCN(C)CC5)cc4)cc3)nc21 | 309 | 395 | 341 | 391 | 353 | 352 | 330 | 296 | 337

Row | Structure (SMILES) | AUC of viability dose-response curve ([1]; HPLM + 10% dialyzed FBS) | AUC of viability dose-response curve ([1]; RPMI 5 mM glucose + 10% FBS) | AUC of viability dose-response curve [1, 4] | AUC of viability dose-response curve ([2]; HPLM + 10% dialyzed FBS) | AUC of viability dose-response curve ([2]; RPMI 5 mM glucose + 10% FBS) | AUC of viability dose-response curve [2, 4] | AUC of viability dose-response curve ([3]; HPLM + 10% dialyzed FBS) | AUC of viability dose-response curve ([3]; RPMI 5 mM glucose + 10% FBS) | AUC of viability dose-response curve [3, 4]
24 | COc1c(Cl)cc2c([nH]c3cnccc32)c1NC(=O)c1cccnc1C | 464 | 473 | 471 | 462 | 468 | 454 | 469 | 405 | 465
25 | Cc1nc(-c2ccc(OCC(C)C)c(C#N)c2)sc1C(=O)O | 461 | 471 | 468 | 467 | 424 | 437 | 475 | 472 | 458
26 | C[C@]12CC[C@H]3[C@@H](CC(=C)\C4=C\C(=O)\C=C/[C@]34C)[C@@H]1CCC2=O | 463 | 429 | 444 | 466 | 466 | 461 | 426 | 438 | 437
27 | NC1=NC(=O)N2CC12 (stereo unspecified) | 367 | 350 | 352 | 400 | 369 | 349 | 312 | 314 | 281
28 | C/C1=C2/[N]3[Co+]456([OH])<-[N]7=C1[C@@H](CCC(N)=O)C(C)(C)/C7=C/C1=[N]->4C(=C(/C)C4=[N]->5[C@@](C)([C@H]3[C@H](CC(N)=O)[C@@]2(C)CCC(=O)NC[C@@H](C)OP(=O)([O-])O[C@H]2[C@@H](O)[C@@H](n3c[n]->6c5cc(C)c(C)cc53)O[C@@H]2CO)[C@@](C)(CC(N)=O)[C@@H]4CCC(N)=O)/[C@@](C)(CC(N)=O)[C@@H]1CCC(N)=O | 434 | 426 | 443 | – | – | – | 433 | 414 | 460
29 | C[C@H](NC(=O)Cc1cc(F)cc(F)c1)C(=O)N[C@H](C(=O)OC(C)(C)C)c1ccccc1 | 448 | 397 | 432 | 432 | 428 | 390 | 418 | 456 | 415
30 | CCNC(=O)Nc1ccc(Oc2ncnc(N)c2/C=N/OC)cc1Cl | 460 | 459 | 441 | 477 | 458 | 471 | – | – | –
31 | OC1=CC=C(C=C1)C/2=C/C3=C(OC2)C=C(O)C=C3 | 368 | 411 | 418 | 354 | 356 | 349 | 355 | 358 | 362
32 | COc1cc(C(=O)NC2CCN(C)CC2)ccc1Nc1ncc2c(n1)N(C1CCCC1)CCC(=O)N2C(C)C | 432 | 442 | 457 | 406 | 410 | 411 | – | – | –
33 | O=C(O)CCCCCC(=O)NN=C1CCCC1 | 433 | 414 | 453 | 467 | 468 | 447 | 456 | 468 | 461
34 | CN(C)CCCC1(c2ccc(F)cc2)OCc2cc(C#N)ccc21 (stereo unspecified) | 425 | 431 | 392 | 433 | 415 | 425 | 447 | 426 | 432
35 | C=CC(=O)Nc1cc2c(Nc3ccc(F)c(Cl)c3)ncnc2cc1C#CC(C)(C)N1CCN(C)CC1 | 382 | 395 | 387 | 395 | 395 | 383 | 360 | 357 | 363
36 | COc1cc2c(cc1OC)[C@@H]1Cc3ccc(OC)c(OC)c3CN1CC2 | 452 | 458 | 464 | 467 | 444 | 461 | 473 | 449 | 477
37 | CC(C)c1onc(-c2c(Cl)cccc2Cl)c1COc1ccc(/C=C/c2cccc(C(=O)O)c2)c(Cl)c1 | 454 | 447 | 466 | 450 | 445 | 452 | 466 | 465 | 443
38 | Cc1ccc(Nc2cc(-c3cccc(N4C(=O)c5ccccc5C4=O)c3)ncn2)cc1N[S+](C)(=O)[O-] | 461 | 473 | 469 | 466 | 465 | 474 | 468 | 463 | 468
39 | CN(C)C/C=C/C(=O)Nc1ccc(C(=O)Nc2cccc(Nc3ncc(Cl)c(-c4c[nH]c5ccccc45)n3)c2)cc1 | 248 | 248 | 235 | 240 | 234 | 247 | – | – | –
40 | CNc1nc(-c2ccc3c(N)n[nH]c3c2)cc(N2C[C@@H](C(=O)NC3CCCCC3)CC[C@H]2C)n1 | 350 | 359 | 364 | 395 | 319 | 336 | – | – | –
41 | Cc1cn2cc(C(=O)N(C)CCO)cc(N[C@@H]3CCOc4cccc(C)c43)c2n1 | 462 | 422 | 443 | 465 | 470 | 469 | – | – | –
42 | CCN(CC)CCNC(=O)c1c(C)[nH]c(/C=C2\C(=O)Nc3ccc(F)cc32)c1C | 257 | 265 | 271 | 248 | 266 | 257 | – | – | –
43 | CCCOc1ccc(C(=O)OCCN(CC)CC)cc1N | 465 | 468 | 464 | 453 | 448 | 446 | – | – | –
44 | C[C@]12CCC3c4ccc(O)cc4CCC3C1CCC2=O (stereo partly specified) | 429 | 424 | 420 | 441 | 447 | 395 | – | – | –
45 | CNC(=O)c1ccc2c(c1)NC(=O)/C2=C(\Nc1cccc(CN(C)C)c1)c1ccccc1 | 400 | 399 | 380 | – | – | – | 318 | 303 | 302
